Experimental data from patent publication US7700593B2, “Imidazo- and triazolo-pyridine compounds and methods of use thereof” (Amgen Inc., priority 2006, dated 2010).
Read-outs that look alike come from different tables or passages of the source.

Legend:
THP1 cells = experiment: Lipopolysaccharide-activated THP1 cell TNF production assay; type: cell-based, human; conditions: LPS-induced TNF-α production in THP1 cells
Protocol: Lipopolysaccharide-Activated THP1 Cell TNF Production Assay
THP1 cells are resuspended in fresh THP1 media (RPMI 1640, 10% heat-inactivated FBS, 1×PGS, 1×NEAA, plus 30 μM βME) at a concentration of 1E6/mL. One hundred microliters of cells per well are plated in a polystyrene 96-well tissue culture. One microgram per mL of bacterial LPS is prepared in THP1 media and is transferred to the wells. Test compounds are dissolved in 100% DMSO and are serially diluted 3-fold in a polypropylene 96-well microtiter plate (drug plate). HI control and LO control wells contain only DMSO. One microliter of test compound from the drug plate followed by 10 μL of LPS are transferred to the cell plate. The treated cells are induced to synthesize and secrete TNF-α at 37° C. for 3 h. Forty microliters of conditioned media are transferred to a 96-well polypropylene plate containing 110 μL of ECL buffer (50 mM Tris-HCl pH 8.0, 100 mM NaCl, 0.05% Tween 20, 0.05% NaN3 and 1% FBS) supplemented with 0.44 nM MAB610 monoclonal Ab (R&D Systems), 0.34 nM ruthenylated AF210NA polyclonal Ab (R&D Systems) and 44 μg/mL sheep anti-mouse M280 Dynabeads (Dynal). After a 2 h incubation at room temperature with shaking, the reaction is read on the ECL M8 Instrument (IGEN Inc.). A low voltage is applied to the ruthenylated TNF-α immune complexes, which in the presence of TPA (the active component in Origlo), results in a cyclical redox reaction generating light at […]. The amount of secreted TNF-α in the presence of compound compared with that in the presence of DMSO vehicle alone (HI control) is calculated using the formula: % control (POC)=(cpd−average LO)/(average HI−average LO)*100. Data (consisting of POC and inhibitor concentration in μM) is fitted to a 4-parameter equation (y=A+((B−A)/(1+((x/C)^D))), where A is the minimum y (POC) value, B is the maximum y (POC), C is the x (cpd concentration) at the point of inflection and D is the slope factor) using a Levenburg-Marquardt non-linear regression algorithm.

monocytes = experiment: Lipopolysaccharide-activated monocyte TNF production assay (LPS induced TNF release); type: cell-based, human; conditions: LPS induced TNF release from monocytes, read-out: LPS induced TNFa
Protocol: Lipopolysaccharide-Activated Monocyte TNF Production Assay
Test compounds were evaluated in vitro for the ability to inhibit the production of TNF by monocytes activated with bacterial lipopolysaccharide (LPS). Fresh residual source leukocytes (a byproduct of plateletpheresis) were obtained from a local blood bank, and peripheral blood mononuclear cells (PBMCs) were isolated by density gradient centrifugation on Ficol-Paque Plus (Pharmacia). PBMCs were suspended at 2×10^6/mL in DMEM supplemented to contain 2% FCS, 10 mM, 0.3 mg/mL […], 100 U/mL penicillin G and […] streptomycin sulfate (complete media). Cells were plated into Falcon flat bottom, 96 well culture plates (200 μL/well) and cultured overnight at 37° C. and 6% CO2. Non-adherent cells were removed by washing with 200 μl/well of fresh medium. Wells containing adherent cells (˜70% monocytes) were replenished with 100 μL of fresh medium.
Preparation of Test Compound Stock Solutions
Test compounds were dissolved in […]. Compound stock solutions were prepared to an initial concentration of […]. Stocks were diluted initially to […] in complete media. Nine two-fold serial dilutions of each compound were then prepared in complete medium.
Treatment of Cells with Test Compounds and Activation of TNF Production with Lipopolysaccharide
One hundred microliters of each test compound dilution were added to microtiter wells containing adherent monocytes and 100 μL complete medium. Monocytes were cultured with test compounds for 60 min at which time 25 μL of complete medium containing 30 ng/mL lipopolysaccharide from E. coli K532 were added to each well. Cells were cultured an additional 4 hrs. Culture supernatants were then removed and TNF presence in the supernatants was quantified using an ELISA.
Flat bottom, 96 well Corning High Binding ELISA plates were coated overnight (4° C.) with 150 μL/well of 3 μg/mL murine anti-human TNF-α MAb (R&D Systems #MAB210). Wells were then blocked for 1 h at room temperature with 200 μL/well of CaCl2-free ELISA buffer supplemented to contain 20 mg/mL BSA (standard ELISA buffer: […], 150 mM NaCl, 2 mM CaCl2, 0.15 mM thimerosal, pH 7.4). Plates were washed and replenished with 100 μL of test supernatants (diluted 1:3) or standards. Standards consisted of eleven 1.5-fold serial dilutions from a stock of 1 ng/mL recombinant human TNF (R&D Systems). Plates were incubated at room temperature for 1 h on orbital shaker (300 rpm), washed and replenished with 100 μL/well of 0.5 μg/mL goat anti-human TNF-α (R&D systems #AB-210-NA) biotinylated at a 4:1 ratio. Plates were incubated for 40 min, washed and replenished with 100 μL/well of alkaline phosphatase-conjugated streptavidin (Jackson ImmunoResearch #016-050-084) at 0.02 μg/mL. Plates were incubated 30 min, washed and replenished with 200 μL/well of 1 mg/mL of p-nitrophenyl phosphate.
Standard curve data were fit to a second order polynomial and unknown TNF-α concentrations determined from their OD by solving this equation for concentration. TNF concentrations were then plotted vs. test compound concentration using a second order polynomial. This equation was then used to calculate the concentration of test compounds causing a 50% reduction in TNF production.

p38α = p38α (Homo sapiens, UniProt Q16539); experiment: p38 in-vitro HTRF enzyme assay; type: biochemical; conditions: IC50 value ranges
Protocol: p38 In-Vitro HTRF Enzyme Assay
The compounds of the invention can be tested for their respective affinities for the p38 protein using a conventional p38 in-vitro enzyme activity assay. For example, a P38-alpha HTRF assay may be used to measure the protein's in-vitro phosphorylation activity, and the data analyzed using time resolved fluorimetry techniques (FRET). A p38 HTRF assay is as follows. The kinase reaction buffer for p38α, p38β, p38δ and p38γ HTRF assays consists of 50 mM Tris-pH 7.5, 5 mM MgCl2, 0.1 mg/mL BSA, 100 μM Na3VO4 and 0.5 mM DTT. The HTRF detection buffer contains 100 mM HEPES-pH 7.5, 100 mM NaCl, 0.1% BSA, 0.05% Tween-20, and 10 mM EDTA. Each compound was dissolved in 100% DMSO and serially diluted (3 fold, 10 point) in a polypropylene 96-well microtiter plate (drug plate). The final starting concentration of the compound in the p38α and p38β enzymatic assays was about 1 μM. The final starting concentration of each compound in the p38δ and p38γ enzymatic assays was about 10 μM. The p38α, p38β, p38δ and p38γ kinase reactions were carried out in a polypropylene 96-well black round bottom assay plate in total volume of 30 μL kinase reaction buffer. Appropriate concentration of purified and activated enzyme (recombinant human) was mixed with indicated concentration of ATP and 100 nM GST-ATF2-Avitag, in the presence or absence (HI control) of each compound. In the absence of enzyme, the background was measured as LO control. HI controls and LO controls contained only DMSO. The reaction was allowed to incubate for 1 hour at RT. […] After 60 minutes incubation at room temperature, the assay plate was read in a Discovery Plate Reader. The wells were excited with coherent 320 nm light and the ratio of delayed ([…] post excitation) emissions at […] (native europium fluorescence) and 665 nm (europium fluorescence transferred to allophycocyanin—an index of substrate phosphorylation) was determined (Park et al, 1999). The resulting data was analyzed by taking the proportion of substrate phosphorylated in the kinase reaction in the presence of each individual compound and comparing it with that phosphorylated in the presence of DMSO vehicle alone (HI control). The data was calculated using the formula: % control (POC)=(compound−average LO)/(average HI−average LO)*100. Data (consisting of POC and inhibitor concentration in μM) was fitted to a 4-parameter equation (y=A+((B−A)/(1+((x/C)^D))), where A is the minimum y (POC) value, B is the maximum y (POC), C is the x (compound concentration) at the point of inflection and D is the slope factor, using a Levenburg-Marquardt non-linear regression algorithm. The inhibition constant (Ki) of the inhibitor was estimated from the IC50 (compound concentration at the point of inflection C) using the Cheng-Prussof equation: Ki=IC50/(1+S/Km), where S is the ATP substrate concentration, and Km is the Michaelis constant for ATP as determined experimentally. All results were expressed as the mean±the standard error of the mean. Data acquisition and non-linear regression algorithms were performed using Activity Base v5.2 and XLfit software v4.1 respectively. Additional assay information may be obtained in Park Y W, Cummings R T, Wu L, et al. Homogeneous Proximity Tyrosine Kinase Assays Scintillation Proximity Assay versus Homogeneous Time-Resolved Fluorescence. Analytical Biochemistry. 1999; 269: 94-104.

Sequence of p38α (Q16539 whole entry): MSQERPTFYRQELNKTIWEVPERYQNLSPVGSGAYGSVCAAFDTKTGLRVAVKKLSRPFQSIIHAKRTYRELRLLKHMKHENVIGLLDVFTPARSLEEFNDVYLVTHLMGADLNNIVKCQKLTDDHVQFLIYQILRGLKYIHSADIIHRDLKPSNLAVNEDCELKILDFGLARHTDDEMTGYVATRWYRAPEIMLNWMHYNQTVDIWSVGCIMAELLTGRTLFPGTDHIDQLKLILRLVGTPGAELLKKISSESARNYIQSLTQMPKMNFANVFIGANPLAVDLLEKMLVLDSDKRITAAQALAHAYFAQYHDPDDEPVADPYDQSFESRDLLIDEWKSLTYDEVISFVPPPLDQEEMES

Compound | IC50 (THP1 cells; read-out: THP-1 cell assay) [nM] | IC50 (monocytes) [nM] | IC50 (p38α) [nM] | IC50 (THP1 cells; Homo sapiens, THP-1) [nM] | IC50 (monocytes; Homo sapiens, Monocyte) [nM]
4-methyl-3-(3-(4-methyl-1,3-oxazol-5-yl)[1,2,4]triazolo[4,3-a]pyridin-7-yl)-N-(1-methyl-1H-pyrazol-5-yl)benzamide [Example 58] | 250 to 1000 | 250 to 1000 | 25 to 100 |  | 
Cc1ccc(C(=O)NC2CC2)cc1-c1ccn2c(N)nnc2c1 [Example 1, 3-(3-amino[1,2,4]triazolo[4,3-a]pyridin-7-yl)-N-cyclopropyl-4-methylbenzamide] |  |  | 250 to 1000 | 1000 to 5000 | 1000 to 5000
Cc1ccc(C(=O)NC2CC2)cc1-c1ccn2c(-c3ccccc3F)nnc2c1 [Example 2, N-cyclopropyl-3-(3-(2-fluorophenyl)[1,2,4]triazolo[4,3-a]pyridin-7-yl)-4-methylbenzamide] |  |  | < 25 | 25 to 100 | 25 to 100
Cc1ccc(C(=O)Nc2ccnn2C)cc1-c1ccn2c(-c3ccccc3Cl)nnc2c1 [Example 3, 3-(3-(2-chlorophenyl)[1,2,4]triazolo[4,3-a]pyridin-7-yl)-4-methyl-N-(1-methyl-1H-pyrazol-5-yl)benzamide] |  |  | < 25 | < 25 | < 25
Cc1ccc(C(=O)Nc2ccnn2C)cc1-c1ccn2c(-c3cnccc3C(F)(F)F)ncc2c1 [Example 4, 4-methyl-N-(1-methyl-1H-pyrazol-5-yl)-3-(3-(4-(trifluoromethyl)-3-pyridinyl)imidazo[1,5-a]pyridin-7-yl)benzamide] |  |  | < 25 | 25 to 100 | 25 to 100
Cc1ccc(C(=O)NC2CC2)cc1-c1cc(C)n2c(-c3ccccc3Cl)nnc2c1 [Example 6, 3-(3-(2-chlorophenyl)-5-methyl[1,2,4]triazolo[4,3-a]pyridin-7-yl)-N-cyclopropyl-4-methylbenzamide] |  |  | < 25 | < 25 | 25 to 100
Cc1ccc(C(=O)NC2CC2)cc1-c1ccn2c(NC(C)C)nnc2c1 [Example 7, N-cyclopropyl-4-methyl-3-(3-((1-methylethyl)amino)[1,2,4]triazolo[4,3-a]pyridin-7-yl)benzamide] |  |  | < 25 | 100 to 250 | 100 to 250
Cc1ccc(C(=O)Nc2ccnn2C)cc1-c1ccn2c(-c3cc(F)cc(F)c3)ncc2c1 [Example 8, 3-(3-(3,5-difluorophenyl)imidazo[1,5-a]pyridin-7-yl)-4-methyl-N-(1-methyl-1H-pyrazol-5-yl)benzamide] |  |  | < 25 | 100 to 250 | 1000 to 5000
Cc1ccc(C(=O)Nc2ccnn2C)cc1-c1ccn2c(-c3ccccc3Cl)ncc2c1 [Example 9, 3-(3-(2-chlorophenyl)imidazo[1,5-a]pyridin-7-yl)-4-methyl-N-(1-methyl-1H-pyrazol-5-yl)benzamide] |  |  | < 25 | < 25 | 25 to 100
Cc1ccc(C(=O)NC2CC2)cc1-c1ccn2c(-c3ccccc3Cl)nnc2c1 [Example 10, 3-(3-(2-chlorophenyl)[1,2,4]triazolo[4,3-a]pyridin-7-yl)-N-cyclopropyl-4-methylbenzamide] |  |  | < 25 | < 25 | 25 to 100
Cc1ccc(C(=O)NC2CC2)cc1-c1ccn2c(C3(C(F)(F)F)CC3)nnc2c1 [Example 21, N-cyclopropyl-4-methyl-3-(3-(1-(trifluoromethyl)cyclopropyl)[1,2,4]triazolo[4,3-a]pyridin-7-yl)benzamide] |  |  | < 25 | < 25 | 
Cc1ccc(C(=O)NC2CC2)cc1-c1ccn2c(-c3ccc(S(C)(=O)=O)cc3Cl)nnc2c1 [Example 26, 3-(3-(2-chloro-4-(methylsulfonyl)phenyl)[1,2,4]triazolo[4,3-a]pyridin-7-yl)-N-cyclopropyl-4-methylbenzamide] |  |  | < 25 | 100 to 250 | 
Cc1ccc(C(=O)NC2CC2)cc1-c1ccn2c(C(C)C)nnc2c1 [Example 27, N-cyclopropyl-4-methyl-3-(3-(1-methylethyl)[1,2,4]triazolo[4,3-a]pyridin-7-yl)benzamide] |  |  | < 25 | 25 to 100 | 
